From US20130216552A1, “CRTH2 MODULATORS” (Ironwood Pharmaceuticals, Inc., priority 2010, published 2013)

Legend:
[1] = target: T1, CRTH2 (Homo sapiens, UniProt Q9Y5Y4); test: DPBS CD11b Antagonist Assay; assay type: cell-based; settings: polymorphonuclear cells in PBS with CaCl2/MgCl2; CD11b expression in eosinophils; agonist 15R-Methyl-PGD2 (10 nM)
T1 construct: polymorphonuclear cells (0.5 ml; 10^6/ml cells) in PBS containing 0.9 mM CaCl2 and 0.5 mM MgCl2; endogenous in cells; host or cells: polymorphonuclear cells (eosinophils gated by flow cytometry)
T1 sequence (Q9Y5Y4 1-395): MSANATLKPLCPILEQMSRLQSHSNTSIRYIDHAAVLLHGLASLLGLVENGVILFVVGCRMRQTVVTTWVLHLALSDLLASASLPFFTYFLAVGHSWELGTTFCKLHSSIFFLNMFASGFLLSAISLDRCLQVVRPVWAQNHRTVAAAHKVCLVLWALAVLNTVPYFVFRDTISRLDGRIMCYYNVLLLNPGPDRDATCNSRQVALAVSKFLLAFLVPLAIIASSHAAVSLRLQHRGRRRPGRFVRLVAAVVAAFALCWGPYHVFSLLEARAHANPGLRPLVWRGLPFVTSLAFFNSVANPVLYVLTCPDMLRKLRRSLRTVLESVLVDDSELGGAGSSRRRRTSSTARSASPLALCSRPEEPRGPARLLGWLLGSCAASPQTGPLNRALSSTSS
Experimental: DPBS CD11b Antagonist Assay
The potential CRTH2 antagonist activity of certain compounds was tested using a CD11b expression assay using essentially the method described by Monneret et al. (J Pharmacol Exp Ther 304:349-55, 2003). Briefly, polymorphonuclear cells (0.5 ml; 10^6/ml cells) in PBS containing 0.9 mM CaCl2 and 0.5 mM MgCl2) were preincubated with various concentrations of test compounds at room temperature for 10 minutes before they were challenged with the agonist 15R-Methyl-PGD2 (10 nM). The incubations were terminated by the addition of ice-cold FACSFlow (BD Biosciences; Cat#342003) and centrifugation (400 g for 5 minutes at 4° C.). The cells were then incubated for 30 minutes at 4° C. with a mixture of PE-labeled mouse anti-human VLA-4 (5 μl; BD Biosciences) and FITC-labeled mouse anti-human CD11b (10 μl; Beckman Coulter). The cells were then incubated with Optilyse C (0.25 ml; Beckman Coulter) for 15 minutes, centrifuged, and then fixed in PBS (0.4 ml; calcium and magnesium free) containing 1% formaldehyde. The distribution of fluorescence intensities among 60,000 cells was measured by flow cytometry. Eosinophils were gated out on the basis of their granularity (high side scatter) and labeling with VLA-4 (PE fluorescence). CD11b was then measured in the eosinophil region on the basis of fluorescence due to FITC. All data were corrected for the value obtained for the corresponding isotope control antibody.

[2] = target: T1, CRTH2; test: Human Whole Blood CD11b Antagonist Assay; assay type: cell-based; settings: CD11b expression in eosinophils, agonist 15R-Methyl-PGD2 (10 nM)
Experimental: Human Whole Blood CD11b Antagonist Assay (Modified from Nicholson, et al. Pulmonary Pharmacology and Therapeutics: 20 (2007); 52-59)
The potential CRTH2 antagonist activity of certain compounds was tested in human whole blood using an assay that tests the ability of the compounds to block the CD11b expression in eosinophils by 15-R-methyl-PGD2. A CRTH2 antagonist should block CD11b expression by subsequently added 15-Methyl-PGD2. Human whole blood ([…]) was incubated at 37° C. for 10 minutes in the presence of various concentrations of test compounds before being challenged with the agonist 15R-Methyl-PGD2 (10 nM). Reactions were terminated by the addition of ice-cold PBS+0.5% BSA+2 mM EDTA (1 mL) and centrifugation (300×g for 5 minutes at 4° C.) Cells were then incubated at 4° C. for 10 min in the presence of human IgG. Cells were then incubated for 30-45 min with a mixture of PE-Cy5-labeled mouse anti-human CD16 (10 ul; BD Biosciences) and FITC-labeled mouse anti-human CD11b (10 μL; Beckman Coulter.) After rinsing (1 mL ice-cold PBS+0.5% BSA+2 mM EDTA), red blood cells were lysed by the addition of 1 mL ice-cold H2O to the cell pellet for 30 sec-1 min immediately followed by the addition of 3.5% NaCl (300 μL.) Cells were then rinsed (2×−1 ml ice cold PBS+0.5% BSA+2 m MEDTA) and fixed in PBS containing 1% formaldehyde. The distribution of fluorescence intensities was measured by flow cytometry. Eosinophils were gated out on the basis of their granularity (high side scatter) and absence of CD-16. CD11b was then measured on this eosinophil population on the basis of fluorescence due to FITC.

| SMILES | IC50 [1] [nM] | IC50 [2] [nM] |
| --- | --- | --- |
| Cc1c(Cc2ccccc2S(=O)(=O)N2CCCC2)c2sccc2n1CC(=O)O [Compound I-4, 2-(5-Methyl-6-(2-(pyrrolidin-1-ylsulfonyl)benzyl)-4H-thieno[3,2-b]pyrrol-4-yl)acetic acid] | 1 to 5 | 20 to 100 |
| Cc1c(Cc2ccccc2S(=O)(=O)N2CCOCC2)c2scnc2n1CC(=O)O [Compound I-5, 2-(5-Methyl-6-(2-(morpholinosulfonyl)benzyl)-4H-pyrrolo[2,3-d]thiazol-4-yl)acetic acid] | 3000 to 5000 | 3000 to 5000 |
| Cc1c(Cc2ccccc2S(=O)(=O)N2CCCC2)c2scnc2n1CC(=O)O [Compound I-2, 2-(5-Methyl-6-(2-(pyrrolidin-1-ylsulfonyl)benzyl)-4H-pyrrolo[2,3-d]thiazol-4-yl)acetic acid] | 100 to 500 | – |
| Cc1c(Cc2ccccc2S(=O)(=O)c2ccccc2)c2ccsc2n1CC(=O)O [Compound I-3, 2-(5-Methyl-4-(2-(phenylsulfonyl)benzyl)-6H-thieno[2,3-b]pyrrol-6-yl)acetic acid] | < 1 | 5 to 20 |
| Cc1c(Cc2ccccc2S(=O)(=O)N2CCOCC2)c2ccsc2n1CC(=O)O [Compound I-6, 2-(5-Methyl-4-(2-(morpholinosulfonyl)benzyl)-6H-thieno[2,3-b]pyrrol-6-yl)acetic acid] | < 1 | 5 to 20 |
| Cc1c(Cc2ccccc2S(=O)(=O)N2CCCC2)c2ccsc2n1CC(=O)O [Compound I-1, 2-(5-Methyl-4-(2-(pyrrolidin-1-ylsulfonyl)benzyl)-6H-thieno[2,3-b]pyrrol-6-yl)acetic acid] | < 1 | 20 to 100 |
